Measurements reported in patent US20260184662A1, “COMPOSITE OF ACID AND SALT, AND PREPARATION METHOD THEREFOR” (NANJING NUTRABUILDING BIO-TECH CO., LTD., priority 2022, published 2026).
Like-named read-outs stand apart in the source and are kept apart here. One block for each compound: values may come before it.

Experiments:
[1] = Determination of moisture contents with KF moisture meter at different time points; format: physicochemical; conditions: temperature 23° C., humidity 92.5%
Description: (§1) For R-3-hydroxybutyric acid, potassium R-3-hydroxybutyrate, mixture of R-3-hydroxybutyric acid and potassium R-3-hydroxybutyrate, and R-3-hydroxybutyric acid·potassium R-3-hydroxybutyrate complex of Example 1, under a certain condition, KF moisture meter was used to determine the moisture contents at different time points.
as §1, with “3-hydroxybutyric” for “R-3-hydroxybutyric”, “3-hydroxybutyrate,” for “R-3-hydroxybutyrate,”, “3-hydroxybutyrate” for “R-3-hydroxybutyrate”, “7,” for “1,”
as §1, with “S-3-hydroxybutyric” for “R-3-hydroxybutyric”, “S-3-hydroxybutyrate,” for “R-3-hydroxybutyrate,”, “S-3-hydroxybutyrate” for “R-3-hydroxybutyrate”, “13,” for “1,”
as §1, with “calcium” for “potassium”, “acid·calcium” for “acid·potassium”, “19,” for “1,”
(§2) For 3-hydroxybutyric acid, calcium 3-hydroxybutyrate, mixture of 3-hydroxybutyric acid and calcium 3-hydroxybutyrate, and 3-hydroxybutyric acid·calcium 3-hydroxybutyrate complex of Example 25, under a certain condition, KF moisture meter was used to determine the moisture contents at different time points.
as §2, with “S-3-hydroxybutyric” for “3-hydroxybutyric”, “S-3-hydroxybutyrate,” for “3-hydroxybutyrate,”, “S-3-hydroxybutyrate” for “3-hydroxybutyrate”, “31,” for “25,”
as §1, with “magnesium” for “potassium”, “acid·magnesium” for “acid·potassium”, “37,” for “1,”
as §2, with “magnesium” for “calcium”, “acid·magnesium 3-hydroxy butyrate” for “acid·calcium 3-hydroxybutyrate”, “43,” for “25,”
For S-3-hydroxybutyric acid, magnesium S-3-hydroxybutyrate, mixture of S-3-hydroxybutyric acid and magnesium S-3-hydroxybutyrate, and S-3-hydroxybutyric acid·magnesium S-3-hydroxybutyrate complex of Example 49, under a certain condition, KF moisture meter was used to determine the moisture contents at different time points.
(§3) For R-3-hydroxypentanoic acid, sodium R-3-hydroxypentanoate, mixture of R-3-hydroxypentanoic acid and sodium R-3-hydroxypentanoate, and R-3-hydroxypentanoic acid·sodium R-3-hydroxypentanoate complex of Example 55, under a certain condition, KF moisture meter was used to determine the moisture contents at different time points.
as §3, with “3-hydroxypentanoic” for “R-3-hydroxypentanoic”, “3-hydroxypentanoate,” for “R-3-hydroxypentanoate,”, “3-hydroxypentanoate” for “R-3-hydroxypentanoate”, “61,” for “55,”
as §3, with “S-3-hydroxypentanoic” for “R-3-hydroxypentanoic”, “S-3-hydroxypentanoate,” for “R-3-hydroxypentanoate,”, “S-3-hydroxypentanoate” for “R-3-hydroxypentanoate”, “67,” for “55,”

[2] = Stability of complexes at 30-80° C.; format: physicochemical
Description: For R-3-hydroxybutyric acid, potassium R-3-hydroxybutyrate, mixture of R-3-hydroxybutyric acid and potassium R-3-hydroxybutyrate, and R-3-hydroxybutyric acid·potassium R-3-hydroxybutyrate complex of Example 1, […]
For 3-hydroxybutyric acid, potassium 3-hydroxybutyrate, mixture of 3-hydroxybutyric acid and potassium 3-hydroxybutyrate, and 3-hydroxybutyric acid·potassium 3-hydroxybutyrate complex of Example 7, […]
For S-3-hydroxybutyric acid, potassium S-3-hydroxybutyrate, mixture of S-3-hydroxybutyric acid and potassium S-3-hydroxybutyrate, and S-3-hydroxybutyric acid·potassium S-3-hydroxybutyrate complex of Example 13, […]
For R-3-hydroxybutyric acid, calcium R-3-hydroxybutyrate, mixture of R-3-hydroxybutyric acid and calcium R-3-hydroxybutyrate, and R-3-hydroxybutyric acid·calcium R-3-hydroxybutyrate complex of Example 19, […]
For 3-hydroxybutyric acid, calcium 3-hydroxybutyrate, mixture of 3-hydroxybutyric acid and calcium 3-hydroxybutyrate, and 3-hydroxybutyric acid·calcium 3-hydroxybutyrate complex of Example 25, […]
For S-3-hydroxybutyric acid, calcium S-3-hydroxybutyrate, mixture of S-3-hydroxybutyric acid and calcium S-3-hydroxybutyrate, and S-3-hydroxybutyric acid·calcium S-3-hydroxybutyrate complex of Example 31, […]
For R-3-hydroxybutyric acid, magnesium R-3-hydroxybutyrate, mixture of R-3-hydroxybutyric acid and magnesium R-3-hydroxybutyrate, and R-3-hydroxybutyric acid·magnesium R-3-hydroxybutyrate complex of Example 37, […]
For 3-hydroxybutyric acid, magnesium 3-hydroxybutyrate, mixture of 3-hydroxybutyric acid and magnesium 3-hydroxybutyrate, and 3-hydroxybutyric acid·magnesium 3-hydroxybutyrate complex of Example 43, […]
For S-3-hydroxybutyric acid, magnesium S-3-hydroxybutyrate, mixture of S-3-hydroxybutyric acid and magnesium S-3-hydroxybutyrate, and S-3-hydroxybutyric acid·magnesium S-3-hydroxybutyrate complex of Example 49, […]
For R-3-hydroxypentanoic acid, sodium R-3-hydroxypentanoate, mixture of R-3-hydroxypentanoic acid and sodium R-3-hydroxypentanoate, and R-3-hydroxypentanoic acid·sodium R-3-hydroxypentanoate complex of Example 55, […]
For 3-hydroxypentanoic acid, sodium 3-hydroxypentanoate, mixture of 3-hydroxypentanoic acid and sodium 3-hydroxypentanoate, and 3-hydroxypentanoic acid·sodium 3-hydroxypentanoate complex of Example 61, […]
For S-3-hydroxypentanoic acid, sodium S-3-hydroxypentanoate, mixture of S-3-hydroxypentanoic acid and sodium S-3-hydroxypentanoate, and S-3-hydroxypentanoic acid·sodium S-3-hydroxypentanoate complex of Example 67, […]

Compound: CC(O)CC(=O)O.CC(O)CC(=O)[O-].CC(O)CC(=O)[O-].[Ca+2] (centres unmarked) [3-hydroxybutyric acid·calcium 3-hydroxybutyrate]
- moisture content (%) ([1]; 30 min): 0.56%
- moisture content (%) ([1]; 1 h): 1.12%
- moisture content (%) ([1]; 2 h): 1.86%
- moisture content (%) ([1]; 4 h): 3.19%
- moisture content (%) ([1]; 6 h): 4.68%
- moisture content (%) ([1]; 7 h): 5.45%
- moisture content (%) ([1]; 11 h): 8.72%
- moisture content (%) ([1]; 22 h): 14.43%
- Stability ([2]; 30° C.): unchanged
- Stability ([2]; 40° C.): unchanged
- Stability ([2]; 50° C.): unchanged
- Stability ([2]; 60° C.): unchanged
- Stability ([2]; 80° C.): melted

Compound: CC(O)CC(=O)O.CC(O)CC(=O)[O-].CC(O)CC(=O)[O-].[Mg+2] (centres unmarked) [3-hydroxybutyric acid·magnesium 3-hydroxybutyrate]
- moisture content (%) ([1]; 30 min): 0.56%
- moisture content (%) ([1]; 1 h): 0.97%
- moisture content (%) ([1]; 2 h): 1.82%
- moisture content (%) ([1]; 4 h): 3.26%
- moisture content (%) ([1]; 6 h): 4.62%
- moisture content (%) ([1]; 7 h): 5.57%
- moisture content (%) ([1]; 11 h): 8.75%
- moisture content (%) ([1]; 22 h): 14.68%
- Stability ([2]; 30° C.): unchanged
- Stability ([2]; 40° C.): unchanged
- Stability ([2]; 50° C.): unchanged
- Stability ([2]; 60° C.): Unchanged
- Stability ([2]; 80° C.): melted

Compound: CC(O)CC(=O)O.CC(O)CC(=O)[O-].[K+] (centres unmarked) [3-hydroxybutyric acid·potassium 3-hydroxybutyrate]
- moisture content (%) ([1]; 30 min): 0.68%
- moisture content (%) ([1]; 1 h): 1.28%
- moisture content (%) ([1]; 2 h): 1.93%
- moisture content (%) ([1]; 4 h): 3.68%
- moisture content (%) ([1]; 6 h): 5.92%
- moisture content (%) ([1]; 7 h): 6.84%
- moisture content (%) ([1]; 11 h): 9.67%
- moisture content (%) ([1]; 22 h): 19.25%
- Stability ([2]; 30° C.): unchanged
- Stability ([2]; 40° C.): unchanged
- Stability ([2]; 50° C.): Unchanged
- Stability ([2]; 60° C.): unchanged
- Stability ([2]; 80° C.): melted

- moisture content (%) ([1]; 30 min): 0.51%
- moisture content (%) ([1]; 1 h): 0.98%
- moisture content (%) ([1]; 2 h): 1.71%
- moisture content (%) ([1]; 4 h): 2.82%
- moisture content (%) ([1]; 6 h): 4.16%
- moisture content (%) ([1]; 7 h): 4.60%
- moisture content (%) ([1]; 11 h): 7.28%
- moisture content (%) ([1]; 22 h): 14.69%
- Stability [2]: unchanged
Compound: CCC(O)CC(=O)O.CCC(O)CC(=O)[O-].[Na+] (centres unmarked) [3-hydroxypentanoic acid·sodium 3-hydroxypentanoate]

Compound: C[C@@H](O)CC(=O)O.C[C@@H](O)CC(=O)[O-].C[C@@H](O)CC(=O)[O-].[Ca+2] [R-3-hydroxybutyric acid·calcium R-3-hydroxybutyrate]
- moisture content (%) ([1]; 30 min): 0.54%
- moisture content (%) ([1]; 1 h): 1.02%
- moisture content (%) ([1]; 2 h): 1.96%
- moisture content (%) ([1]; 4 h): 3.26%
- moisture content (%) ([1]; 6 h): 4.79%
- moisture content (%) ([1]; 7 h): 5.39%
- moisture content (%) ([1]; 11 h): 8.65%
- moisture content (%) ([1]; 22 h): 14.45%
- Stability ([2]; 30° C.): unchanged
- Stability ([2]; 40° C.): unchanged
- Stability ([2]; 50° C.): unchanged
- Stability ([2]; 60° C.): unchanged
- Stability ([2]; 80° C.): melted

Compound: C[C@@H](O)CC(=O)O.C[C@@H](O)CC(=O)[O-].C[C@@H](O)CC(=O)[O-].[Mg+2] [R-3-hydroxybutyric acid·magnesium R-3-hydroxybutyrate]
- moisture content (%) ([1]; 30 min): 0.57%
- moisture content (%) ([1]; 1 h): 0.92%
- moisture content (%) ([1]; 2 h): 1.76%
- moisture content (%) ([1]; 4 h): 3.16%
- moisture content (%) ([1]; 6 h): 4.59%
- moisture content (%) ([1]; 7 h): 5.69%
- moisture content (%) ([1]; 11 h): 8.65%
- moisture content (%) ([1]; 22 h): 14.45%
- Stability ([2]; 30° C.): unchanged
- Stability ([2]; 40° C.): unchanged
- Stability ([2]; 50° C.): unchanged
- Stability ([2]; 60° C.): unchanged
- Stability ([2]; 80° C.): melted

Compound: C[C@@H](O)CC(=O)O.C[C@@H](O)CC(=O)[O-].[K+] [R-3-hydroxybutyric acid·potassium R-3-hydroxybutyrate]
- moisture content (%) ([1]; 30 min): 0.64%
- moisture content (%) ([1]; 1 h): 1.24%
- moisture content (%) ([1]; 2 h): 1.89%
- moisture content (%) ([1]; 4 h): 3.66%
- moisture content (%) ([1]; 6 h): 5.89%
- moisture content (%) ([1]; 7 h): 6.78%
- moisture content (%) ([1]; 11 h): 9.77%
- moisture content (%) ([1]; 22 h): 19.45%
- Stability ([2]; 30° C.): unchanged
- Stability ([2]; 40° C.): unchanged
- Stability ([2]; 50° C.): unchanged
- Stability ([2]; 60° C.): unchanged
- Stability ([2]; 80° C.): melted

- moisture content (%) ([1]; 30 min): 0.45%
- moisture content (%) ([1]; 1 h): 0.85%
- moisture content (%) ([1]; 2 h): 1.63%
- moisture content (%) ([1]; 4 h): 2.72%
- moisture content (%) ([1]; 6 h): 4.08%
- moisture content (%) ([1]; 7 h): 4.49%
- moisture content (%) ([1]; 11 h): 7.21%
- moisture content (%) ([1]; 22 h): 14.54%
- Stability [2]: unchanged
Compound: CC[C@@H](O)CC(=O)O.CC[C@@H](O)CC(=O)[O-].[Na+] [R-3-hydroxypentanoic acid·sodium R-3-hydroxypentanoate]

Compound: C[C@H](O)CC(=O)O [S-3-hydroxybutyric acid]
- moisture content (%) ([1]; 30 min): 1.23%
- moisture content (%) ([1]; 1 h): 2.28%
- moisture content (%) ([1]; 2 h): 4.05%
- moisture content (%) ([1]; 4 h): 6.32%
- moisture content (%) ([1]; 6 h): 9.53%
- moisture content (%) ([1]; 7 h): 10.62%
- moisture content (%) ([1]; 11 h): 17.08%
- moisture content (%) ([1]; 22 h): 32.95%
- Stability ([2]; 30° C.): unchanged
- Stability ([2]; 50° C.): melted
- Stability ([2]; 60° C.): melted
- Stability ([2]; 70° C.): melted
- Stability ([2]; 80° C.): melted

Compound: C[C@H](O)CC(=O)O.C[C@H](O)CC(=O)[O-].C[C@H](O)CC(=O)[O-].[Ca+2] [S-3-hydroxybutyric acid·calcium S-3-hydroxybutyrate]
- moisture content (%) ([1]; 30 min): 0.52%
- moisture content (%) ([1]; 1 h): 0.98%
- moisture content (%) ([1]; 2 h): 1.88%
- moisture content (%) ([1]; 4 h): 3.05%
- moisture content (%) ([1]; 6 h): 4.47%
- moisture content (%) ([1]; 7 h): 5.22%
- moisture content (%) ([1]; 11 h): 8.41%
- moisture content (%) ([1]; 22 h): 13.98%
- Stability ([2]; 30° C.): unchanged
- Stability ([2]; 40° C.): unchanged
- Stability ([2]; 50° C.): unchanged
- Stability ([2]; 60° C.): unchanged
- Stability ([2]; 80° C.): melted
